Results as given in patent US20220273598A1, “METHOD FOR TREATING ALZHEIMER'S DISEASE BY INHIBITING UPTAKE OF AMINO ACIDS BY T CELLS” (SHANGHAI GREEN VALLEY PHARMACEUTICAL CO., LTD., priority 2019, published 2022).
Entries after “also recorded” stand apart in the source; their conditions may differ.

Tests used:
[1] = system: 5×FAD transgenic (Tg) mice; test: Flow cytometry of Th1 cells and M1 microglia in brain homogenate; format: in vivo, mouse; conditions: 6-month-old 5×FAD mice, 50 mg/kg intraperitoneal every day for one month, versus vehicle
Protocol: Animals. […] Mice were randomly assigned to different groups before treatment. […] The mouse brain was collected and stained for immune cell analysis and cytokine analysis. […] For OM1 treatment, at the age of 6.5 months, based on 450 mg b.i.d. (twice a day) in the phase III trial, Tg mice were treated with 100 mg/kg OM1 by oral administration once a day for one month. […] The brains and feces of the mice were then used for different analyses.
Flow cytometry sample preparation and analysis. Mice were anesthetized, blood samples were collected into EDTA-containing tubes, and red blood cells were removed using 1×red blood lysis buffer. Before tissue collection, the brains were perfused with ice-cold PBS to avoid sampling the circulating blood immune cells, and the brains were removed, chopped into pieces and dissected according to the introduction of the Adult Brain Dissociation Kit (Miltenyi, Cat No. 130-107-677) using the gentleMACS dissociator (Miltenyi Biotec). The brain homogenate was filtered through a 70-μm cell strainer and centrifuged at 300×g for 5 min at 4° C. The cell pellet was resuspended in cold PBS buffer and centrifuged again at 300×g for 5 min at 4° C. All samples were counted and adjusted to a density of 2-3×10^6/100 μL, labeled with a Live/Dead kit for 30 min, and then centrifuged at 500×g for 3 min at 4° C. The cells were resuspended in 100 μL PBS buffer, blocked with anti-CD16/32 (Biolegend, Cat No. 101320) for 10 min, and incubated with the antibody according to the manufacturers' protocols at 4° C. for 30 min. […]

[2] = biological target: LAT1 (Homo sapiens, UniProt Q01650); conditions: supplier description; cited from earlier work
[3] = biological target: T1, SLC7A5 (Mus musculus, UniProt Q9Z127); test: Uptake of 13C-labelled phenylalanine by naive CD4+ T cells; format: cell-based; conditions: 0.5 h incubation
T1 construct: endogenous in cells; host or cells: naive CD4+ T cells from splenocytes of C57BL/6 mice (Th0 / IL-12-induced Th1)
Protocol: Uptake of phenylalanine. Naive CD4^+ T cells were separated from the splenocytes of 8-month-old C57BL/6 female mice using the Naive CD4^+ T cell Isolation Kit (Stem Cell, Cat No. 19765) and were induced to Th1 differentiation by 20 ng/mL IL-12. After 3 days, a total of 5×10^5 cells/well Th1 cells and Th0 cells in 0.5 mL of RPMI-1640 medium were plated into 48-well plates. ^13C-labelled phenylalanine and 5 mM amino transporter inhibitor BCH were added into indicated wells. After 0.5 h, cells were collected and washed twice with ice-cold D-PBS. 50 μL deionized water was added and cells were lysed through freezing and thawing twice at −80° C. The cell lysate was centrifuged at 12000×g for 10 min and ^13C-labelled phenylalanine in the supernatant was analyzed by Mass spectrometry.

[4] = system: naive CD4+ T cells; test: In vitro differentiation and proliferation induced by phenylalanine and isoleucine; format: cell-based, mouse; conditions: amino acid added directly to naive CD4+ T cell culture; for Th1 cell proliferation: CellTrace
Protocol: In Vitro differentiation and proliferation induced by phenylalanine and isoleucine. Naive CD4^+ T cells were separated from the splenocytes of 8-month-old C57BL/6 female mice using the Naive CD4^+ T cell Isolation Kit (Stem Cell, #19765), and the cells were stained with CellTrace (Thermo Fisher, #C34557). A total of 1×10^5 cells/well in 0.2 mL of RPMI-1640 medium were plated in 96-well plates, and the culture medium was supplemented with cytokines or blocking antibodies. Th0: 10 ng/mL mIL-2; Th1:10 ng/mL mIL-2, 5000 ng/mL 11B11. Phenylalanine (final concentration, 2 mmol/L), isoleucine (final concentration, 2 mmol/L) and OM1 (final concentration, 100 μg/mL) were added into the indicated wells, respectively. After incubation at 37° C. in 5% CO2 for 5 days, cells were acquired on a BD Fortessa cytometer, and data were analyzed using FlowJo software.

[5] = system: C57 mice; test: Intraperitoneal injection of phenylalanine and isoleucine, blood Th1 cells by FACS; format: in vivo, mouse; conditions: WT mice, intraperitoneal injection 50 mg/kg for 4 days
Protocol: Animals. Tg mice and co-housed WT mice (corresponding WT mice generated by mating Tg mice and C57 mice) were housed in the same cage after birth. WT mice (C57) were housed in separate cages to avoid cross-transfer of microbiota. All mice were kept in a 23° C. room with a 12-hour (h) light-dark cycle. Mice were randomly assigned to different groups before treatment. For time course analysis of Tg mice, male and female Tg mice were sacrificed at 2, 3, 5, 7 and 9 months of age. The mouse brain was collected and stained for immune cell analysis and cytokine analysis. Before the mice were sacrificed, feces were collected for gut microbiota analysis. For OM1 treatment, at the age of 6.5 months, based on 450 mg b.i.d. (twice a day) in the phase III trial, Tg mice were treated with 100 mg/kg OM1 by oral administration once a day for one month. Behavioral tests were performed to monitor cognitive activity after the last treatment. […] All mouse movements that occur in PhenoTyper (HomeCage) are recorded by a computerized tracking system, which calculates the time and number of entrances required to reach 80% of the performance standard (Noldus, Ethovision). […]
Flow cytometry sample preparation and analysis. […] All samples were counted and adjusted to a density of 2-3×10^6/100 μL, labeled with a Live/Dead kit for 30 min, and then centrifuged at 500×g for 3 min at 4° C. […]

T1 sequence (Q9Z127 whole entry): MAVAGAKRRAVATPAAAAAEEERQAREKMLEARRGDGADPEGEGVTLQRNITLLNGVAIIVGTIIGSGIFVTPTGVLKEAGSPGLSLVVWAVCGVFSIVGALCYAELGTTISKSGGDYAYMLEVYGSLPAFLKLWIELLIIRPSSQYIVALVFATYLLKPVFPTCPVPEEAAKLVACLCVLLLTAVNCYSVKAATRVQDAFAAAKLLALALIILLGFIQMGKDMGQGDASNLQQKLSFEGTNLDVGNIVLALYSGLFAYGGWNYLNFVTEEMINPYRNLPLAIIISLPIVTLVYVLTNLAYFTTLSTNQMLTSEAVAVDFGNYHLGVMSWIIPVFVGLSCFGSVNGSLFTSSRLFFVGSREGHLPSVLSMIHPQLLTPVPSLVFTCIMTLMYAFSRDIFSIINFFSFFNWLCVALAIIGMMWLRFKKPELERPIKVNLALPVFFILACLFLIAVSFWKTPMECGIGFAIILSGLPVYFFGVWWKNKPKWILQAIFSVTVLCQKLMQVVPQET
T1 sequence (P10852 whole entry partner): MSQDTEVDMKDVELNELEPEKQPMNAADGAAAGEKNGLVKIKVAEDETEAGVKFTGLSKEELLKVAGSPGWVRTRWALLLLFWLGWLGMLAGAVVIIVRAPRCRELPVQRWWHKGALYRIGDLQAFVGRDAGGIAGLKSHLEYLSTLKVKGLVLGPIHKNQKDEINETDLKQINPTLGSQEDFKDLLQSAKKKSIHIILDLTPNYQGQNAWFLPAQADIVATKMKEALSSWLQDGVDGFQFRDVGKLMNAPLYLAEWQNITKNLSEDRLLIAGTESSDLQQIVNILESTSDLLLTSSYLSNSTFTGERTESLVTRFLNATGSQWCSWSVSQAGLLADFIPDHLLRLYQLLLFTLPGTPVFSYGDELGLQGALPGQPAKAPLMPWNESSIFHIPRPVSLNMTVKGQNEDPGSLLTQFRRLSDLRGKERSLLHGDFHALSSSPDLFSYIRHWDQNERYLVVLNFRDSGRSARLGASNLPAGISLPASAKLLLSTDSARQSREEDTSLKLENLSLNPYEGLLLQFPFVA
Sequence of LAT1 (Q01650 whole entry, species assumed): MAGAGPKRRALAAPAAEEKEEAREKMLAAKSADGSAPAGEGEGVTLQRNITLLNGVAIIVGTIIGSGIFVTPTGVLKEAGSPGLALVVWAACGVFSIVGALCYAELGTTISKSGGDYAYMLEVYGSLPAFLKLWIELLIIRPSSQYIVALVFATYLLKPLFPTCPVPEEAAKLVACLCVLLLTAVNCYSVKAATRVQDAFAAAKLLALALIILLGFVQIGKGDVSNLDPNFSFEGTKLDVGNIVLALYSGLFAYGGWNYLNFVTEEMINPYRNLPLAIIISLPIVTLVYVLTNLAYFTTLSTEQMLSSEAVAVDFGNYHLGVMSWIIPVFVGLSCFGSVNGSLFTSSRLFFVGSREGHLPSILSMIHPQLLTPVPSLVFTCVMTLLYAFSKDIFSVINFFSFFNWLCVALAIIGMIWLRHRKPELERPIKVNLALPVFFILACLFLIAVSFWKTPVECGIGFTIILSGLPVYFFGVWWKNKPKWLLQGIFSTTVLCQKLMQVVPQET
Sequence of LAT1 (P08195 102-630 partner, species assumed): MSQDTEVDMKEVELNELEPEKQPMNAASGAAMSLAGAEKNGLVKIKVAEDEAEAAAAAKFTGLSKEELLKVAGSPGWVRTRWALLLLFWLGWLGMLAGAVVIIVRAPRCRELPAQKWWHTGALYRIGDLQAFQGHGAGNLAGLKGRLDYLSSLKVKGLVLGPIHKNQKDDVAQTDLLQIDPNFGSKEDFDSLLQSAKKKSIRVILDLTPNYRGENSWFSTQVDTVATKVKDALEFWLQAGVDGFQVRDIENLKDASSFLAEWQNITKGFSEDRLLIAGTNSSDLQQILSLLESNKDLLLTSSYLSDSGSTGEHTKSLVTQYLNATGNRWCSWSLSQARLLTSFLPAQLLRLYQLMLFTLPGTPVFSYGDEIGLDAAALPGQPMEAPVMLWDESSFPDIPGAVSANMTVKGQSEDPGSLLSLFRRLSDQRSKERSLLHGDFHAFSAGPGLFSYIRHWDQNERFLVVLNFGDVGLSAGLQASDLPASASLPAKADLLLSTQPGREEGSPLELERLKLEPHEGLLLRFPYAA

SMILES	proportion of pro-inflammatory Th1 cells in the mouse brain ([1]; 50 mg/kg)	proportion of pro-inflammatory Th1 cells in the mouse brain ([1]; listed as JPH203, 50 mg/kg)	LAT1 selectivity [2]	uptake of 13C-labelled phenylalanine by CD4+ T cells [3]	Th0 cell differentiation into Th1 cells [4]	Th1 cell proliferation [4]	Th1 cell count in the blood [5]
Nc1cc(COc2c(Cl)cc(C[C@H](N)C(=O)O)cc2Cl)c2oc(-c3ccccc3)nc2c1 [JPH 203]	significantly reduces the proportion of Th1 cells in the mouse brain	effectively inhibits the proportion of Th1 cells in the brain; also recorded: significantly downregulated the proportion of pro-inflammatory Th1 cells in the mouse brain	selectively inhibits LAT1	blocked			
CC[C@H](C)[C@H](N)C(=O)O [isoleucine]					increased	increased	increased significantly
N[C@@H](Cc1ccccc1)C(=O)O [phenylalanine]					increased	increased	increased significantly
